Where a SMILES comes first, the peptide text is derived from it. Where no end group is shown, it is not given here. The star is where a group is joined. Cbz = O=C(OCc1ccccc1)*; CH2F = FC*
Tests used:
caspase-6 = biological target: T1, caspase-6 (Homo sapiens, UniProt P55212); assay: Purified caspase-6 activity assay (Caspase-Glo 6, Z-VEID-aminoluciferin); format: biochemical
T1 construct: purchased Enzo life-science
T1 sequence (P55212 24-293): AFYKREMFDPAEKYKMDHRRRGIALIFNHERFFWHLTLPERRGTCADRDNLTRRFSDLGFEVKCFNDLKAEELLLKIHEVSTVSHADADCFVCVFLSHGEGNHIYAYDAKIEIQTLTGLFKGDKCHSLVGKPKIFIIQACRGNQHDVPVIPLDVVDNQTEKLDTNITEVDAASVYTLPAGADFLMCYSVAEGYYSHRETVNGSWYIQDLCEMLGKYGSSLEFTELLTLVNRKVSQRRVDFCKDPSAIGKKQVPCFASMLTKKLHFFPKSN
Protocol: For determining ED11 caspase-6 inhibition ability, the Caspase-Glo® 6 assay (Promega) was carried out according to the manufacturer's instructions. Briefly, 0.1 U/ml Purified caspase-6 (Enzo life-science) was incubated with 0-12 μM Z-VEID-aminoluciferin in the presence of 10 μM ED11 or DMSO as vehicle control, and luminescent signal of released aminoluciferin (as RLU) was detected using Synergy HT multi-mode micro-plate reader (Bio-Tek). For Michaelis-Menten curve plotting, initial velocity was calculated using linear regression of the progress curve linear segment, adjusted to RLU/min. For caspase-3 inhibition capability, caspase-3 inhibitor drug detection kit (Abcam) was performed according to the manufacturer's instructions.
EDII inhibits caspase-6 activity in a purified caspase-6 activity assay: To test the peptide ability to compete on caspase-6 activity, purified caspase-6 and Z-VEID-Aminoluciferin (Caspase-6 Glo™, Promega) were incubated with ED11, and bioluminescence signal was detected using SynergyHT microplate reader (FIGS. 1A-1D).

SH-SY5Y cells = assay: Cell viability, proliferation and cell cycle in a basal state; format: cell-based, Human; details: up to 50 μM
Protocol: SH-SY5Y cells were pre-incubated with 25 μM ED11 for one hour. Then, 10 μM 5-bromo-2-deoxyuridine (BrdU) was added for 2 hours. Medium was discarded and cells were fixed with 70% ethanol. DNA denaturation was conducted with 1.5 M HCl exposure for 30 minutes. FITC conjugated anti-BrdU antibody was used to mark incorporated BrdU. DNA staining was performed by using propidium iodide (PI). 15,000 cells per sample were read using FACS-Calibur flow cytometer, and cell-cycle analysis was conducted after doublet discrimination.
To induce exogenous glutamate toxicity, SH-SY5Y cell were incubated with the indicated concentrations of L-Glutamate (Sigma) for 16 hours, in the presence of 20 μM ED11 or vehicle control. For the In-cell caspase-6 activity assay, green FLICA caspase-6 assay (ImmunoChemistry Technologies) was conducted according to the manufacturer's instructions. Briefly, cells were lifted by trypsin and adjusted to 1.5×10^6 cells/ml. Cells were incubated with FAM-VEID-FMK for 1 hour in 37° C., washed with PBS and 5,000 cells per sample were analyzed by flow-cytometry. For apoptosis detection, Annexin V-FITC apoptosis detection assay (Abcam) was conducted according to the manufacturer's instructions. Briefly, 2×10^5 cells were incubated with Annexin V-FITC and PI for 5 minutes in R.T, and 15,000 cells per sample were analyzed by flow-cytometry. For viability assessment, medium was depleted and washed twice with PBS, and alamar-blue dye (AbD serotec, 1/10 in culture medium) was added to the cells, as instructed by the manufacturer. Fluorescence was monitored at 530-560 nm excitation wavelength and 590 nm emission wavelength, and viability was calculated as percentage of untreated control.

caspase-3 = biological target: T2, caspase-3 (Homo sapiens, UniProt P42574); assay: Fluorescent caspase-3 inhibition assay (caspase-3 inhibitor drug detection kit); format: biochemical; details: purified caspase-3/caspase-6 assay, FIGS. 1E-1F
T2 construct: purchased Abcam
T2 sequence (P42574 29-277): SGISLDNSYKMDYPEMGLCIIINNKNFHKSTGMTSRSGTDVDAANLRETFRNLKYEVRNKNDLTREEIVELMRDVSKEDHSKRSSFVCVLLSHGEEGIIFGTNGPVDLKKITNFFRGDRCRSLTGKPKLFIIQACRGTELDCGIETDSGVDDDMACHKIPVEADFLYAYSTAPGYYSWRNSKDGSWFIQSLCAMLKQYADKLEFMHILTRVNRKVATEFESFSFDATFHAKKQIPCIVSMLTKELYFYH

With “modified peptide: ED11 with three of the amino acids in positions 17, 20 and 23 changed to Histidine (H) (GRKKRRQRRRPPQSSEHVLHGTHN)” the caspase-6 activity (caspase-6; purified caspase-6, Z-VEID-aminoluciferin, 10 μM ED11) was “ineffective and didn't inhibit the caspase 6 activity”.
With GRKKRRQRRRPPQSSEIVLDGTDN [ED11] the “cell proliferation (BrdU)” value (SH-SY5Y cells) was “no effect”, the “cell viability (ALAMAR blue)” value (SH-SY5Y cells; 48 hours incubation) was “no effect” and the cell cycle state (SH-SY5Y cells; O.N. incubation) was “no effect”.
`COC(=O)C[C@H](NC(=O)[C@H](C)NC(=O)[C@@H](NC(=O)OCc1ccccc1)C(C)C)C(=O)CF` [Z-VAD-FMK, reference compound] (Cbz-Val-Ala-Asp(OMe)-CH2F) was tested, and the “caspase-6 activity, specificity experiment” value (caspase-6; purified caspase-3/caspase-6 assay, FIGS. 1E-1F) was “inhibits activity of caspase-3 and caspase-6” and the “caspase-3 activity, specificity experiment” value (caspase-3) was “inhibits activity of caspase-3 and caspase-6”.
